# Test results: paper PMC4503722, “Novel Phenotypic Outcomes Identified for a Public Collection of Approved Drugs from a Publicly Accessible Panel of Assays” (PLoS ONE, 2015)
# Read-outs that look alike come from different tables or passages of the source.
# Legend:
# HeLa cells = experiment: cells; type: cell-based; conditions: for EC50: read-out: CellCycle G2/M
# [1] = test system: nuclear β-catenin in C2C12 cells; experiment: cells; type: cell-based
# NCI-H716 cells = experiment: cells; type: cell-based, Human; conditions: for EC50: read-out: GLP 1 Secretion
# INS-1E cells = experiment: cells; type: cell-based, rat
# HCT116 = experiment: cells; type: cell-based
# [2] = test system: endothelial tube formation in co-cultures of ECFCs and ADSCs treated with VEGF; experiment: cells; type: cell-based, human; conditions: for IC50: read-out: Anti-Angiogenesis
# [3] = test system: HCT116 cells treated with a GSK3β inhibitor; experiment: cells; type: cell-based
# SW480 = experiment: cells; type: cell-based
# DLD-1 = experiment: cells; type: cell-based
# Colo320 = experiment: cells; type: cell-based
# SNU-C1 = experiment: cells; type: cell-based
# RKO = experiment: cells; type: cell-based
# HT-29 = experiment: cells; type: cell-based; conditions: assay number 28; basal
# [4] = test system: ECFC/ADSC co-culture cell nuclei number
# [5] = read-out: Basal_Viability ATP HCT116
# [6] = Mus musculus, C2C12, IC50 / EC50, C2C12 beta-catenin translocation, read-out: Wnt Pathway
# [7] = Homo sapiens, HCT-116, GSK3b inhibitor pretreated, read-out: GSK3b inh pretreated_Viability ATP HCT116
# [8] = Homo sapiens, IC50 / EC50, NCI-H716
# [9] = Homo sapiens, SW480, basal, read-out: Basal_Viability ATP SW480
# [10] = Rattus norvegicus; IC50 / EC50; INS-1E; read-out: Insulin Secretion
# [11] = Homo sapiens, HCT-116, basal, read-out: Basal_Viability ATP HCT116
# [12] = Homo sapiens, DLD-1, basal, read-out: Basal_Viability ATP DLD-1
# [13] = Mus musculus, C2C12, S2 Table, module primary assay, 20 / 20.1 codes per legend, read-out: Wnt Pathway
# [14] = Homo sapiens, HCT-116, HCT116 pretreated with GSK3b inhibitor, read-out: GSK3b inh pretreated_Viability ATP HCT116
# [15] = Homo sapiens, SW480, basal, SW480, read-out: Basal_Viability ATP SW480
# [16] = Rattus norvegicus, INS-1E; read-out: Insulin Secretion
# [17] = Homo sapiens, HCT-116, basal, HCT116, read-out: Basal_Viability ATP HCT116
# [18] = Homo sapiens, DLD-1, basal, DLD-1, read-out: Basal_Viability ATP DLD-1
# [19] = Homo sapiens, HeLa, IC50 / EC50, HeLa
# [20] = Homo sapiens, DLD-1, read-out: Basal_Viability ATP DLD-1
# [21] = Homo sapiens, HCT-116, read-out: GSK3b inh pretreated_Viability ATP HCT116
# [22] = IC50 / EC50, C2C12 beta-catenin translocation, read-out: Wnt Pathway
# [23] = GSK3b inhibitor pretreated, read-out: GSK3b inh pretreated_Viability ATP HCT116
# [24] = basal, read-out: Basal_Viability ATP SW480
# [25] = IC50 / EC50; INS-1E; read-out: Insulin Secretion
# [26] = basal, read-out: Basal_Viability ATP HCT116
# [27] = basal, read-out: Basal_Viability ATP DLD-1
compound,measurement,setting,value
Oc1c(Cl)cc(Cl)c(Cl)c1Cc1c(O)c(Cl)cc(Cl)c1Cl,EC50,HeLa cells,> 10 µM
same,EC50,[1]; read-out: Wnt Pathway,> 10 µM
same,EC50,NCI-H716 cells,> 10 µM
same,EC50,INS-1E cells; read-out: Insulin Secretion,> 10 µM
same,IC50,HCT116; [5],0.0312 µM
O=C(CCBr)N1CCN(C(=O)CCBr)CC1 [Abbott brand of pipobroman],EC50,HeLa cells,> 10 µM
same,IC50,[2],1.37 µM
same,EC50,[1]; read-out: Wnt Pathway,> 10 µM
same,IC50,[3]; read-out: GSK3b inh pretreated_Viability ATP HCT116,14 µM
same,IC50,SW480; read-out: Basal_Viability ATP SW480,> 20 µM
same,EC50,INS-1E cells; read-out: Insulin Secretion,> 10 µM
same,IC50,HCT116; [5],> 20 µM
same,IC50,DLD-1; read-out: Basal_Viability ATP DLD-1,> 20 µM
Cc1c(C)n(CCN(C)C)c2ccc(C(=O)OCCN(C)C)cc12 [Amindocate],EC50,[1]; [6],> 10 µM
same,IC50,[3]; [7],> 20 µM
same,EC50,NCI-H716 cells; [8],1.2 µM
same,IC50,SW480; [9],10.2 µM
same,EC50,INS-1E cells; [10],> 10 µM
same,IC50,HCT116; [11],> 20 µM
same,IC50,DLD-1; [12],> 20 µM
CC(C)(C)CC(C)(C)c1ccc(O)c(Cc2ccc(Cl)cc2Cl)c1 [Clofoctol],EC50,[1]; [13],> 10 µM
same,IC50,[3]; [14],4.73 µM
same,EC50,"NCI-H716 cells; Homo sapiens, NCI-H716",0.544 µM
same,IC50,SW480; [15],3.97 µM
same,EC50,INS-1E cells; [16],> 20 µM
same,IC50,HCT116; [17],5.31 µM
same,IC50,DLD-1; [18],2.18 µM
Cc1ccc(CCn2c3c(c4cc(Cl)ccc42)CN(C)CC3)cn1 [Dorastine],EC50,HeLa cells; [19],> 10 µM
same,IC50,"[2]; Homo sapiens, IC50 / EC50, endothelial tube area, ADSC/ECFC co-culture",> 10 µM
same,EC50,[1]; [6],> 10 µM
same,IC50,[3]; [7],> 20 µM
same,IC50,SW480; [9],9.46 µM
same,EC50,INS-1E cells; [10],4.2 µM
same,IC50,HCT116; [11],13.4 µM
same,IC50,DLD-1; [12],> 20 µM
CCN(CC)CCCC(C)Nc1c2ccc(Cl)cc2nc2ccc(OC)cc12 (stereo not shown) [Mepacrine],EC50,HeLa cells; [19],> 10 µM
same,EC50,[1]; [6],> 10 µM
same,IC50,[3]; [7],4.48 µM
same,IC50,SW480; [9],3.6 µM
same,EC50,INS-1E cells; [10],4.07 µM
same,IC50,HCT116; [11],5.81 µM
same,IC50,"Colo320; Homo sapiens, COLO 320, read-out: Basal_Viability ATP Colo 320",8.44 µM
same,IC50,"SNU-C1; Homo sapiens, SNU-C1, basal, read-out: Basal_Viability ATP SNU-C1",3.84 µM
same,IC50,"RKO; Homo sapiens, RKO, read-out: Basal_Viability ATP RKO",3.42 µM
same,IC50,DLD-1; [20],7.15 µM
CN(C)c1ccc2nc3ccc(=[N+](C)C)cc-3sc2c1 [Methylene blue],EC50,"[1]; Mus musculus, C2C12, read-out: Wnt Pathway",> 10 µM
same,IC50,[3]; [21],1.39 µM
same,IC50,"SW480; Homo sapiens, SW480, read-out: Basal_Viability ATP SW480",2.68 µM
same,EC50,"INS-1E cells; Rattus norvegicus, INS-1E, read-out: Insulin Secretion",> 10 µM
same,IC50,"HCT116; Homo sapiens, HCT-116, read-out: Basal_Viability ATP HCT116",2.93 µM
same,IC50,DLD-1; [20],> 20 µM
OCCOc1ccccc1 [NCGC00090731-08],assay 1 Angio CD31 TubeArea max %inh,"[2]; single concentration screen (2 and 10 μM), maximum of all test results, 0 = DMSO, 100 = positive control",8.6%
same,assay 4 WntCondMedia bCatenin fluor/nucarea C2C12 max %stim,"[1]; single concentration screen (2 and 10 μM), maximum of all test results",0.5%
same,assay 11 hNCI-H716 GLP1 Secretion max %stim,"NCI-H716 cells; single concentration screen (2 or 10 μM), maximum of all test results",3.7%
same,assay 7 5mMGluc INS1E InsulinRelease max %stim,"INS-1E cells; single concentration screen (2 and 10 μM), 5 mM glucose, maximum of all test results",0.2%
CC(=O)O[C@@]12CO[C@@H]1C[C@H](O)[C@@]1(C)C(=O)[C@H](O)C3=C(C)[C@@H](OC(=O)[C@H](O)[C@@H](NC(=O)OC(C)(C)C)c4ccccc4)C[C@@](O)([C@@H](OC(=O)c4ccccc4)[C@H]21)C3(C)C [NCGC00181306-04],Hela CellCycMod PI 2N IC50/EC50,"HeLa cells; assay number 14, 2N",0.0031 µM
same,Hela CellCycMod PI S Phase IC50/EC50,"HeLa cells; assay number 15, S phase",> 10 µM
same,Hela CellCycMod PI 4N IC50/EC50,"HeLa cells; assay number 16, 4N",0.00335 µM
same,Hela CellCycMod PI MI IC50/EC50,"HeLa cells; assay number 17, MI",0.00317 µM
same,Hela CellCycMod PI Cell Number IC50/EC50,"HeLa cells; assay number 18, cell number",0.001 µM
same,Basal_Viability ATP HT-29 IC50/EC50,HT-29,0.001 µM
same,VEGF_ADSC\ECFC Angio CD31 TubeArea IC50/EC50,[2],0.001 µM
same,WntCondMedia_bCatenin C2C12 IC50/EC50,"[1]; assay number 5, concentration response",0.0652 µM
same,GSK3b inh pretreated_Viability ATP HCT116 IC50/EC50,"[3]; assay number 26, GSK3b inhibitor pretreated",0.001 µM
same,Basal_Viability ATP SW480 IC50/EC50,"SW480; assay number 24, basal",0.001 µM
same,Basal_Viability ATP HCT116 IC50/EC50,"HCT116; assay number 25, basal",0.001 µM
same,Basal_Viability ATP Colo 320 IC50/EC50,"Colo320; assay number 27, basal",0.001 µM
same,Basal_Viability ATP SNU-C1 IC50/EC50,"SNU-C1; assay number 30, basal",> 20 µM
same,Basal_Viability ATP RKO IC50/EC50,"RKO; assay number 29, basal",0.001 µM
same,VEGF_ADSC\ECFC Angio Hoechst NucArea IC50/EC50,[4],> 10 µM
Cc1cc(CC(C)CC(C)(C)C)n(O)c(=O)c1 (stereo not shown) [Piroctonum],EC50,"HeLa cells; IC50 / EC50, HeLa",> 10 µM
same,EC50,[1]; [22],0.591 µM
same,IC50,[3]; [23],0.506 µM
same,EC50,"NCI-H716 cells; IC50 / EC50, NCI-H716",> 10 µM
same,IC50,SW480; [24],0.581 µM
same,EC50,INS-1E cells; [25],> 10 µM
same,IC50,HCT116; [26],0.772 µM
same,IC50,DLD-1; [27],1.08 µM
CNC(=O)c1cc(Oc2ccc(NC(=O)Nc3ccc(Cl)c(C(F)(F)F)c3)cc2)ccn1 [Sorafenib tosilate],EC50,"HeLa cells; Homo sapiens, HeLa, S2 Table, HeLa, 20 = no response at highest concentration",> 10 µM
same,EC50,[1]; [13],> 10 µM
same,IC50,[3]; [21],1.12 µM
same,EC50,"NCI-H716 cells; Homo sapiens, NCI-H716",> 10 µM
same,EC50,INS-1E cells; [16],> 10 µM
"COc1ccc2c(c1)C(=O)N(CCc1ccc(S(=O)(=O)NC(=O)NC3CCCCC3)cc1)C(=O)C2(C)C [gliquidone, reference compound]",EC50,"[1]; Mus musculus, C2C12, Table 2, C2C12, […], 20 / 20.1 coded, read-out: Wnt pot. EC50",> 10 µM
same,IC50,"[3]; Homo sapiens, HCT-116, read-out: HCT-116 (GSK3β) viab. IC50, Table 2, GSK3β inhibitor LY2090314 20 nM, 72 h, Cell TiterGlo, 20 coded",7 µM
same,IC50,[3]; [14],7.03 µM
same,IC50,"SW480; Homo sapiens, SW480, 72 h, Table 2, 72 h, Cell TiterGlo, non-adherent, 20 coded, read-out: SW480 viab. IC50",5.5 µM
same,IC50,SW480; [15],5.5 µM
same,EC50,"INS-1E cells; Rattus norvegicus, INS-1E; read-out: Ins. sec. EC50",0.23 µM
same,EC50,INS-1E cells; [16],0.23 µM
same,IC50,"HCT116; Homo sapiens, HCT-116, 72 h, read-out: HCT-116 viab. IC50, Table 2, basal, 72 h, Cell TiterGlo, non-adherent, 20 coded",10.1 µM
same,IC50,HCT116; [17],10.1 µM
same,IC50,"DLD-1; Homo sapiens, DLD-1, 72 h, Table 2, 72 h, Cell TiterGlo, non-adherent, 20 coded, read-out: DLD-1 viab. IC50",5.1 µM
same,IC50,DLD-1; [18],5.11 µM
C/C(=C(/CCOC(=O)C(C)C)SS/C(CCOC(=O)C(C)C)=C(\C)N(C=O)Cc1cnc(C)nc1N)N(C=O)Cc1cnc(C)nc1N [sulbutiamine],EC50,[1]; [6],> 10 µM
same,IC50,[3]; [7],> 20 µM
same,EC50,NCI-H716 cells; [8],2.39 µM
same,IC50,SW480; [9],> 20 µM
same,EC50,INS-1E cells; [10],> 20 µM
same,IC50,HCT116; [11],> 20 µM
same,IC50,DLD-1; [12],> 20 µM
Janssen brand of muromonab-cd3,EC50,"HeLa cells; IC50 / EC50, HeLa",> 10 µM
same,EC50,[1]; [22],> 10 µM
same,IC50,[3]; [23],3.66 µM
same,EC50,"NCI-H716 cells; IC50 / EC50, NCI-H716",0.79 µM
same,IC50,SW480; [24],3.22 µM
same,EC50,INS-1E cells; [25],> 10 µM
same,IC50,HCT116; [26],2.64 µM
same,IC50,DLD-1; [27],2.81 µM
